# From US9434727B2, “Substituted 4-phenylpiperidines, their preparation and use” (THE TRUSTEES OF COLUMBIA UNIVERSITY IN THE CITY OF NEW YORK, priority 2014, dated 2016)
# Key:
# [1] = target: RBP4-TTR interaction (Homo sapiens (Human), UniProt P02753); test: TR-FRET (HTRF) assay for retinol-induced RBP4-TTR interaction; type: biochemical; conditions: in the presence of 1 μM retinol; read-out: HTRF assay for antagonists of RBP4-TTR interaction: IC50
# Description: TR-FRET assay for retinol-induced RBP4-TTR interaction Binding of a desired RBP4 antagonist displaces retinol and induces hindrance for RBP4-TTR interaction resulting in the decreased FRET signal (FIG. 7). Bacterially expressed MBP-RBP4 and untagged TTR were used in this assay. […] Following cell lysis, recombinant RBP4 was purified from the soluble fraction using the ACTA FPLC system (GE Healthcare) equipped with the 5-ml the MBP Trap HP column. Human untagged TTR was purchased from Calbiochem. Untagged TTR was labeled directly with Eu^3+ Cryptate-NHS using the HTRF Cryptate Labeling kit from CisBio following the manufacturer's recommendations. HTRF assay was performed in white low volume 384 well plates (Greiner-Bio) in a final assay volume of 16 μl per well. The reaction buffer contained 10 mM Tris-HCl pH 7.5, 1 mM DTT, 0.05% NP-40, 0.05% Prionex, 6% glycerol, and 400 mM KF. […] Titration of test compounds in this assay was conducted in the presence of 1 μM retinol. All reactions were assembled in the dark under dim red light and incubated overnight at +4° C. wrapped in aluminum foil. TR-FRET signal was measured in the SpectraMax M5e Multimode Plate Reader (Molecular Device). […] The TR-FRET signal was expressed as the ratio of fluorescence intensity: Flu665/Flu620×10,000.
# [2] = target: RBP4 (Homo sapiens (Human), UniProt P02753); test: Scintillation proximity (SPA) RBP4 binding assay; conditions: 10 nM 3H-Retinol, 50 nM biotinylated RBP4
# Experimental: Scintillation Proximity RBP4 Binding Assay
# Untagged human RBP4 purified from urine of tubular proteinuria patients was purchased from Fitzgerald Industries International. It was biotinylated using the EZ-Link Sulfo-NHS-LC-Biotinylation kit from Pierce following the manufacturer's recommendations. Binding experiments were performed in 96-well plates (OptiPlate, PerkinElmer) in a final assay volume of 100 μl per well in SPA buffer (IX PBS, pH 7.4, 1 mM EDTA, 0.1% BSA, 0.5% CHAPS). The reaction mix contained 10 nM ^3H-Retinol (48.7 Ci/mmol; PerkinElmer), 0.3 mg/well Streptavidin-PVT beads, 50 nM biotinylated RBP4 and a test compound. Nonspecific binding was determined in the presence of 20 μM of unlabeled retinol. The reaction mix was assembled in the dark under dim red light. The plates were sealed with clear tape (TopSeal-A: 96-well microplate, PerkinElmer), wrapped in the aluminum foil, and allowed to equilibrate 6 hours at room temperature followed by overnight incubation at +4° C. Radiocounts were measured using a TopCount NXT counter (Packard Instrument Company).
SMILES,IC50 [1],IC50 [2]
"COC(=O)N1CCc2[nH]nc(C(=O)N3CCC(c4cc(F)cc(F)c4C(F)(F)F)CC3)c2C1 [Compound 138, Methyl 3-(4-(3,5-difluoro-2-(trifluoro-methyl)phenyl)piperidine-1-carbonyl)-6,7-dihydro-1H-pyrazolo[4,3-c]pyridine-5(4H)-carboxylate]",24.4 nM,10.1 nM
"O=C(c1n[nH]c2c1CN(CCC(F)(F)F)CC2)N1CCC(c2cc(F)cc(F)c2C(F)(F)F)CC1 [Compound 129, (4-(3,5-Difluoro-2-(trifluoromethyl)phenyl)piperidin-1-yl)(5-(3,3,3-trifluoropropyl)-4,5,6,7-tetrahydro-1H-pyrazolo[4,3-c]pyridin-3-yl)methanone]",19.5 nM,13.8 nM
"O=C(c1cccnc1)N1Cc2[nH]nc(C(=O)N3CCC(c4ccc(F)c(F)c4C(F)(F)F)CC3)c2C1 [Compound 104, (4-(3,4-difluoro-2-(trifluoromethyl)phenyl)piperidin-1-yl)(5-nicotinoyl-1,4,5,6-tetrahydropyrrolo[3,4-c]pyrazol-3-yl)methanone]",21.8 nM,18.9 nM
"COCCN1CCc2[nH]nc(C(=O)N3CCC(c4ccc(F)c(F)c4C(F)(F)F)CC3)c2C1 [Compound 94, (4-(3,4-difluoro-2-(trifluoromethyl)phenyl)piperidin-1-yl)(5-(2-methoxyethyl)-4,5,6,7-tetrahydro-1H-pyrazolo[4,3-c]pyridin-3-yl)methanone]",49.9 nM,6.96 nM
"O=C(c1n[nH]c2c1CCN(CCC(F)(F)F)C2)N1CCC(c2cccc(F)c2C(F)(F)F)CC1 [Compound 76, (4-(3-Fluoro-2-(trifluoromethyl)phenyl)piperidin-1-yl)(6-(3,3,3-trifluoropropyl)-4,5,6,7-tetrahydro-1H-pyrazolo[3,4-c]pyridin-3-yl)methanone]",19.7 nM,7.4 nM
"CCN1CCc2c(C(=O)N3CCC(c4ccc(F)c(F)c4C(F)(F)F)CC3)n[nH]c2C1 [Compound 111, (4-(3,4-Difluoro-2-(trifluoromethyl)phenyl)piperidin-1-yl)(6-ethyl-4,5,6,7-tetrahydro-1H-pyrazolo[3,4-c]pyridin-3-yl)methanone]",22.1 nM,6.89 nM
"COCCN1CCc2[nH]nc(C(=O)N3CCC(c4cc(F)cc(F)c4C(F)(F)F)CC3)c2C1 [Compound 127, (4-(3,5-Difluoro-2-(trifluoromethyl)phenyl)piperidin-1-yl)(5-(2-methoxyethyl)-4,5,6,7-tetrahydro-1H-pyrazolo[4,3-c]pyridin-3-yl)methanone]",17 nM,15.9 nM
"COC(=O)N1CCc2c(C(=O)N3CCC(c4cc(F)cc(F)c4C(F)(F)F)CC3)n[nH]c2C1 [Compound 130, Methyl 3-(4-(3,5-difluoro-2-(trifluoromethyl)phenyl)piperidine-1-carbonyl)-1,4,5,7-tetrahydro-6H-pyrazolo[3,4-c]pyridine-6-carboxylate]",14.9 nM,12.8 nM
"N#CN1CCc2[nH]nc(C(=O)N3CCC(c4ccc(F)c(F)c4C(F)(F)F)CC3)c2C1 [Compound 95, 3-(4-(3,4-difluoro-2-(trifluoromethyl)phenyl)piperidine-1-carbonyl)-6,7-dihydro-1H-pyrazolo[4,3-c]pyridine-5(4H)-carbonitrile]",27.8 nM,7.78 nM
"CCN1CCc2[nH]nc(C(=O)N3CCC(c4cccc(F)c4Cl)CC3)c2C1 [Compound 163, (4-(2-Chloro-3-fluorophenyl)piperidin-1-yl)(5-ethyl-4,5,6,7-tetrahydro-1H-pyrazolo[4,3-c]pyridin-3-yl)methanone]",55.3 nM,15.3 nM
"COC(=O)N1Cc2[nH]nc(C(=O)N3CCC(c4ccc(F)c(F)c4C(F)(F)F)CC3)c2C1 [Compound 101, methyl 3-(4-(3,4-difluoro-2-(trifluoromethyl)phenyl)piperidine-1-carbonyl)-4,6-dihydropyrrolo[3,4-c]pyrazole-5(1H)-carboxylate]",14.1 nM,7.44 nM
"CC(=O)N1CCc2c(C(=O)N3CCC(c4ccc(F)cc4C(F)(F)F)CC3)n[nH]c2C1 [Compound 158, 1-(3-(4-(4-fluoro-2-(trifluoromethyl)phenyl)piperidine-1-carbonyl)-4,5-dihydro-1H-pyrazolo[3,4-c]pyridin-6(7H)-yl)ethanone]",36.8 nM,8.63 nM
"CC(C)CC(=O)N1Cc2[nH]nc(C(=O)N3CCC(c4ccc(F)c(F)c4C(F)(F)F)CC3)c2C1 [Compound 86, 1-(3-(4-(3,4-difluoro-2-(trifluoromethyl)phenyl)piperidine-1-carbonyl)pyrrolo[3,4-c]pyrazol-5(1H, 4H, 6H)-yl)-3-methylbutan-1-one]",27.8 nM,19.3 nM
"COC(=O)N1CCc2c(C(=O)N3CCC(c4cccc(F)c4Cl)CC3)n[nH]c2C1 [Compound 147, Methyl 3-(4-(2-chloro-3-fluorophenyl)piperidine-1-carbonyl)-4,5-dihydro-1H-pyrazolo[3,4-c]pyridine-6(7H)-carboxylate]",25.5 nM,17.1 nM
O=C(c1n[nH]c2c1CN(C1COC1)CC2)N1CCC(c2cccc(F)c2C(F)(F)F)CC1 [Compound 74],28.3 nM,11.6 nM
"COC(=O)N1CCc2[nH]nc(C(=O)N3CCC(c4ccc(F)c(F)c4C(F)(F)F)CC3)c2C1 [Compound 91, methyl 3-(4-(3,4-difluoro-2-(trifluoromethyl)phenyl)piperidine-1-carbonyl)-6,7-dihydro-1H-pyrazolo[4,3-c]pyridine-5(4H)-carboxylate]",57.7 nM,7.06 nM
"CC(=O)N1CCc2c(C(=O)N3CCC(c4cccc(F)c4C(F)(F)F)CC3)n[nH]c2C1 [Compound 63, 1-(3-(4-(3-Fluoro-2-(trifluoromethyl)phenyl)piperidine-1-carbonyl)-4,5-dihydro-1H-pyrazolo[3,4-c]pyridin-6(7H)-yl)ethanone]",16 nM,4.46 nM
"CC(=O)N1CCc2c(C(=O)N3CCC(c4cc(F)cc(F)c4C(F)(F)F)CC3)n[nH]c2C1 [Compound 131, 1-(3-(4-(3,5-Difluoro-2-(trifluoromethyl)phenyl)piperidine-1-carbonyl)-4,5-dihydro-1H-pyrazolo[3,4-c]pyridin-6(7H)-yl)ethanone]",10.9 nM,6.36 nM
"O=C(c1n[nH]c2c1CN(CCC(F)(F)F)C2)N1CCC(c2ccc(F)c(F)c2C(F)(F)F)CC1 [Compound 108, (4-(3,4-difluoro-2(trifluoromethyl)phenyl)piperidin-1-yl)(5-(3,3,3-trifluoropropyl)-1,4,5,6-tetrahydropyrrolo[3,4-c]pyrazol-3-yl)methanone]",49.5 nM,25.2 nM
"O=C(c1n[nH]c2c1CCN(CC1CC1)C2)N1CCC(c2cccc(F)c2Cl)CC1 [Compound 146, (4-(2-chloro-3-(fluorophenyl)piperidin-1-yl)(6-cyclopropylmethyl)-4,5,6,7-tetrahydro-1H-pyrazolo[3,4-c]pyridine-3-yl)methanone]",36.5 nM,15.9 nM
"O=C(c1n[nH]c2c1CN(CCC(F)(F)F)CC2)N1CCC(c2cccc(F)c2Cl)CC1 [Compound 167, (4-(2-Chloro-3-fluorophenyl)piperidin-1-yl)(5-(3,3,3-trifluoropropyl)-4,5,6,7-tetrahydro-1H-pyrazolo[4,3-c]pyridin-3-yl)methanone]",48.8 nM,11.7 nM
